Data from patent publication US20040142887A1, “Antigen-polymer compositions” (priority 2002, published 2004).
≈ marks a conversion by molar mass, not a printed value.

Columns and labels:
[1] = not given; remark: listed apart in the source

In the case of `CC[C@H](C)[C@H](NC(=O)CNC(=O)[C@@H](NC(=O)[C@H](Cc1ccccc1)NC(=O)[C@H](CCCCN)NC(=O)[C@H](CO)NC(=O)[C@H](CC(N)=O)NC(=O)[C@H](C)NC(=O)[C@H](CCCCN)NC(=O)[C@@H](NC(=O)[C@H](Cc1ccc(O)cc1)NC(=O)[C@H](CCC(N)=O)NC(=O)[C@@H](N)CS)[C@@H](C)CC)[C@@H](C)CC)C(=O)N[C@H](C(=O)N[C@@H](CCC(=O)O)C(=O)N[C@@H](CC(C)C)C(=O)N[C@@H](CC(=O)O)C(=O)N[C@@H](CC(=O)O)C(=O)N1CCC[C@H]1C(=O)N[C@@H](CCCNC(=N)N)C(=O)N[C@@H](Cc1ccccc1)C(=O)N[C@@H](CCC(N)=O)C(=O)N[C@@H](CC(=O)O)C(=O)N[C@@H](CO)C(=O)N[C@@H](CO)C(=O)N[C@@H](CO)C(=O)N[C@@H](CO)C(=O)N[C@@H](CCCCN)C(=O)N[C@@H](C)C(=O)N1CCC[C@H]1C(=O)N1CCC[C@H]1C(=O)N1CCC[C@H]1C(=O)N[C@@H](CO)C(=O)N[C@@H](CC(C)C)C(=O)N1CCC[C@H]1C(=O)N[C@@H](CO)C(=O)N1CCC[C@H]1C(=O)N[C@@H](CO)C(=O)N[C@@H](CCCNC(=N)N)C(=O)N[C@@H](CC(C)C)C(=O)N1CCC[C@H]1C(=O)NCC(=O)N1CCC[C@H]1C(=O)N[C@@H](CO)C(=O)N[C@@H](CC(=O)O)C(=O)N[C@H](C(=O)N1CCC[C@H]1C(=O)N[C@H](C(=O)N[C@@H](CC(C)C)C(=O)N1CCC[C@H]1C(=O)N[C@@H](CCC(N)=O)C(=O)O)[C@@H](C)CC)[C@@H](C)O)[C@@H](C)O` [CTP37-TT2], the solubility is reported as roughly 70 mg/mL (≈ 12.8 mM), the “stability to hydrolysis in solution” value ([1]; pH 1) is reported as “stable to hydrolysis except when the pH was very low (1-2)” and the “peptide remaining soluble at acidic pH” value ([1]; pH 1.4) is reported as “all peptides remained soluble”.
